Values quoted from earlier work as cited in US7951359B2, “Compositions and methods for therapy or prevention of chemotherapy-induced neuropathy” (Merck Serono SA, priority 2004, dated 2011).

System: CIPN caused by carboplatin/paclitaxel
Settings: 2 or 4 μg/kg sub coetaneous daily for 7 days; cited from earlier work

LIF: Recombinant leukemia inhibitor factor (LIF), another gp130 activator
prevention of CIPN: ineffective at preventing CIPN
